Numbers after ± are expanded uncertainties. Blank lines part the entries; values can stand above or below the compound they belong to.
Experiments:
[1] = 298.15 K; 101.33 kPa; Liquid; Vibrating tube method
[2] = xn = mol fraction of the nth substance listed; conditions: 298.15 K, 101 kPa, Liquid, Vibrating tube method

- mass density [1]: 786.56 ± 0.61 kg/m3
SMILES: CO [methanol]

- mass density [1]: 799.7 ± 0.62 kg/m3
SMILES: CCCO [propan-1-ol]

- mass density [1]: 785.31 ± 0.62 kg/m3
SMILES: CCO [ethanol]

- mass density [1]: 735.21 ± 0.62 kg/m3
SMILES: COC(C)(C)C [2-methoxy-2-methylpropane]

- mass density [1]: 718.24 ± 0.64 kg/m3
SMILES: CC(C)OC(C)C [diisopropyl ether]

- mass density ([2]; x2 = 0.2997): 716 ± 0.17 kg/m3
- mass density ([2]; x2 = 0.3004): 715.84 ± 0.17 kg/m3
- mass density ([2]; x2 = 0.3012): 715.86 ± 0.17 kg/m3
- mass density ([2]; x2 = 0.5018): 705.83 ± 0.18 kg/m3
- mass density ([2]; x2 = 0.5019): 705.9 ± 0.18 kg/m3
- mass density ([2]; x2 = 0.5037): 705.72 ± 0.18 kg/m3
- mass density ([2]; x2 = 0.6707): 698.67 ± 0.18 kg/m3
- mass density ([2]; x2 = 0.7056): 697.4 ± 0.18 kg/m3
- mass density ([2]; x2 = 0.7134): 697.17 ± 0.18 kg/m3
SMILES: COC(C)(C)C [2-methoxy-2-methylpropane] + CC(C)CC(C)(C)C

- mass density [1]: 687.62 ± 0.62 kg/m3
SMILES: CC(C)CC(C)(C)C [2,2,4-trimethylpentane]

- mass density ([2]; x2 = 0.3056): 706.86 ± 0.22 kg/m3
- mass density ([2]; x2 = 0.3066): 706.7 ± 0.22 kg/m3
- mass density ([2]; x2 = 0.5009): 700.59 ± 0.21 kg/m3
- mass density ([2]; x2 = 0.5027): 700.42 ± 0.21 kg/m3
- mass density ([2]; x2 = 0.5046): 700.41 ± 0.21 kg/m3
- mass density ([2]; x2 = 0.7004): 694.83 ± 0.19 kg/m3
- mass density ([2]; x2 = 0.7009): 694.86 ± 0.19 kg/m3
- mass density ([2]; x2 = 0.7025): 694.86 ± 0.19 kg/m3
SMILES: CC(C)OC(C)C [diisopropyl ether] + CC(C)CC(C)(C)C

— the NIST ThermoML archive (doi:10.1021/je2011314)
